US20200038412A1, “METHODS OF TREATING ALZHEIMER'S DISEASE USING AMINOSTEROL COMPOSITIONS” (Enterin, Inc., priority 2018, published 2020)
Entries after “also recorded” stand apart in the source; their conditions may differ.

Assays:
[1] = tested on: patients with PD and constipation; experiment: Phase 2 trial Stage 1: bowel (prokinetic) response to single escalating oral doses; format: in vivo, human; conditions: Stage 1, single oral dose
Procedure: Following successful screening, all subjects underwent a 14-day run-in period where the degree of constipation was assessed through a validated daily log (Zinsmeister et al. 2013) establishing baseline CSBMs/week. Subjects with an average of <3 CSBMs/week proceeded to dosing.
Tolerability limits included diarrhea or vomiting.

C. elegans model of PD = conditions: in vivo, C. elegans (Perni et al. 2017); cited from earlier work
[2] = tested on: patients with PD and constipation; experiment: Circadian rhythm of wrist skin temperature; format: in vivo, human; conditions: for circadian rhythm of skin temperature / markers of healthy circadian function: oral, 12 evaluable patients
Procedure: Assessments were made at baseline and at the end of the fixed dose and washout periods. Circadian system status was evaluated by continuously monitoring wrist skin temperature (Thermochron iButton DS1921H; Maxim, Dallas) following published procedures (Sarabia et al. 2008).
Circadian rhythm of skin temperature was evaluable in 12 patients (i.e., those who had recordings that extended from baseline through washout). Circadian system functionality was evaluated by continuously monitoring wrist skin temperature using a temperature sensor (Thermochron iButton DS1921H; Maxim, Dallas, Tex.) (Sarabia et al. 2008). A nonparametric analysis was performed for each participant to characterize DST as previously described (Sarabia et al. 2008; Ortiz-Tudela et al. 2010).
Briefly, this analysis includes the following parameters: (i) the inter-daily stability (the constancy of 24-hour rhythmic pattern over days, IS); (ii) intra-daily variability (rhythm fragmentation, IV); (iii) average of 10-minute intervals for the 10 hours with the minimum temperature (L10); (iv) average of 10-minute intervals for the 5 hours with the maximum temperature (M5) and the relative amplitude (RA), which was determined by the difference between M5 and L10, divided by the sum of both. Finally, the Circadian Function Index (CFI) was calculated by integrating IS, IV, and RA. Consequently, CFI is a global measure that oscillates between 0 for the absence of circadian rhythmicity and 1 for a robust circadian rhythm (Ortiz-Tudela et al. 2010).

αS = αS (Homo sapiens, UniProt P37840); conditions: in vitro; cited from earlier work
[3] = tested on: patients with PD and constipation; experiment: Phase 2 trial Stage 2: adverse events; format: in vivo, human
Procedure: In Stage 2, 34 patients were evaluated.

SMILES: CC(C)[C@@H](CC[C@@H](C)[C@H]1CC[C@H]2[C@@H]3[C@H](O)C[C@H]4C[C@@H](NCCCNCCCCN)CC[C@]4(C)[C@H]3CC[C@]12C)OS(=O)(=O)O (single isomer, unassigned) [squalamine (ENT-01), squalamine]
- cumulative response rate (CSBM within 24 hours of dosing) ([1]; 25 mg): 25%
- cumulative response rate (CSBM within 24 hours of dosing) ([1]; 200 mg (maximum)): 80%
- formation of aggregates of αS (C. elegans model of PD): inhibit the formation of aggregates of αS
- relative amplitude (RA) ([2]; fixed dose vs baseline, p=0.001): increasing
- circadian function index (CFI) ([2]; fixed dose vs baseline, p=0.016): increasing
- rhythm stability (inter-daily stability, IS) ([2]; fixed dose vs baseline, p=0.026): increasing
- rhythm fragmentation (intra-daily variability, IV) ([2]; fixed dose vs baseline, p=0.031): reducing
- circadian rhythm of skin temperature / markers of healthy circadian function ([2]; fixed dose vs baseline): significant positive impact on the circadian rhythm of skin temperature; also recorded: improved all markers of healthy circadian function
- circadian rhythm of skin temperature / markers of healthy circadian function ([2]; fixed dose vs baseline, listed as aminosterol): improved all markers of healthy circadian function
- circadian parameters during wash-out period ([2]; wash-out vs baseline (IS, CFI), 12 patients): improvement persisted for several of these circadian parameters
- displacement of αS from membranes (αS): can displace αS from membranes
- AEs confined to the GI tract ([3]; Stage 2): 63%
- Diarrhea (common adverse events by dose) ([3]; Stage 2, 75 mg): 7
- Dizziness, lightheadedness included (common adverse events by dose) ([3]; Stage 2, 75 mg): 8
- Nausea (common adverse events by dose) ([3]; Stage 2, 75 mg): 3
- Diarrhea (common adverse events by dose) ([3]; Stage 2, 100 mg): 10
- Dizziness, lightheadedness included (common adverse events by dose) ([3]; Stage 2, 100 mg): 7
- Nausea (common adverse events by dose) ([3]; Stage 2, 100 mg): 12
- Diarrhea (common adverse events by dose) ([3]; Stage 2, 125 mg): 3
- Dizziness, lightheadedness included (common adverse events by dose) ([3]; Stage 2, 125 mg): 8
- Nausea (common adverse events by dose) ([3]; Stage 2, 125 mg): 4
- Diarrhea (common adverse events by dose) ([3]; Stage 2, 150 mg): 2
- Dizziness, lightheadedness included (common adverse events by dose) ([3]; Stage 2, 150 mg): 2
- Nausea (common adverse events by dose) ([3]; Stage 2, 150 mg): 11
- Diarrhea (common adverse events by dose) ([3]; Stage 2, 175 mg): 1
- Dizziness, lightheadedness included (common adverse events by dose) ([3]; Stage 2, 175 mg): 0
- Nausea (common adverse events by dose) ([3]; Stage 2, 175 mg): 12
- Diarrhea (common adverse events by dose) ([3]; Stage 2, 200 mg): 3
- Nausea (common adverse events by dose) ([3]; Stage 2, 200 mg): 6
- Diarrhea (common adverse events by dose) ([3]; Stage 2, 225 mg): 3
- Nausea (common adverse events by dose) ([3]; Stage 2, 225 mg): 1
- Diarrhea (common adverse events by dose) ([3]; Stage 2, 250 mg): 2
- patients with diarrhea ([3]; Stage 2, 15/34 patients): 44%
- patients with nausea ([3]; Stage 2, 18/34 patients): 52.9%
- Abdominal pain, Mild ([3]; Stage 2, 34 dosed): 4 (11.7) n, %
- Abdominal pain, Moderate ([3]; Stage 2, 34 dosed): 2 (5.8) n, %
- Blood in urine, Mild ([3]; Stage 2, 34 dosed): 0 n, %
- Blood in urine, Moderate ([3]; Stage 2, 34 dosed): 0 n, %
- Diarrhea, Mild ([3]; Stage 2, 34 dosed): 12 (35) n, %
- Diarrhea, Moderate ([3]; Stage 2, 34 dosed): 2 (5.8) n, %
- Diarrhea, Severe ([3]; Stage 2, 34 dosed): 1 (2.9) n, %
- Difficulty falling asleep, Mild ([3]; Stage 2, 34 dosed): 1 (3) n, %
- Difficulty falling asleep, Moderate ([3]; Stage 2, 34 dosed): 0 n, %
- Dizziness, Mild ([3]; Stage 2, 34 dosed): 7 (20.5) n, %
- Dizziness, Moderate ([3]; Stage 2, 34 dosed): 1 (2.9) n, %
- Eye infection, Mild ([3]; Stage 2, 34 dosed): 1 (3) n, %
- Eye infection, Moderate ([3]; Stage 2, 34 dosed): 0 n, %
- Flatulence, Mild ([3]; Stage 2, 34 dosed): 1 (3) n, %
- Flatulence, Moderate ([3]; Stage 2, 34 dosed): 0 n, %
- Headache, Mild ([3]; Stage 2, 34 dosed): 3 (8.8) n, %
- Headache, Moderate ([3]; Stage 2, 34 dosed): 0 n, %
- Increased urinary frequency, Mild ([3]; Stage 2, 34 dosed): 2 (5.8) n, %
- Increased urinary frequency, Moderate ([3]; Stage 2, 34 dosed): 0 n, %
- Loss of appetite, Mild ([3]; Stage 2, 34 dosed): 0 n, %
- Loss of appetite, Moderate ([3]; Stage 2, 34 dosed): 0 n, %
- Nausea, Mild ([3]; Stage 2, 34 dosed): 18 (52) n, %
- Nausea, Moderate ([3]; Stage 2, 34 dosed): 1 (2.9) n, %
- Skin lesions-rash, Mild ([3]; Stage 2, 34 dosed): 3 (8.8) n, %
- Skin lesions-rash, Moderate ([3]; Stage 2, 34 dosed): 0 n, %
- Urinary retention, Mild ([3]; Stage 2, 34 dosed): 1 (3) n, %
- Urinary retention, Moderate ([3]; Stage 2, 34 dosed): 0 n, %
- Urinary tract infection, Mild ([3]; Stage 2, 34 dosed): 1 (3) n, %
- Urinary tract infection, Moderate ([3]; Stage 2, 34 dosed): 2 (5.8) n, %
- Vomiting, Mild ([3]; Stage 2, 34 dosed): 2 (5.8) n, %
- Vomiting, Moderate ([3]; Stage 2, 34 dosed): 0 n, %
- Worsening acid reflux, Mild ([3]; Stage 2, 34 dosed): 4 (11.7) n, %
- Worsening acid reflux, Moderate ([3]; Stage 2, 34 dosed): 0 n, %
- Worsening hemorrhoid, Mild ([3]; Stage 2, 34 dosed): 1 (3) n, %
- Worsening hemorrhoid, Moderate ([3]; Stage 2, 34 dosed): 0 n, %
- patients terminated prior to completion because of recurrent dizziness ([3]; Stage 2, two patients): 5.8%
- Lower GI bleed, Severe ([3]; Stage 2, colonic diverticulosis, polyp, patient on aspirin, Plavix and naproxen, unrelated to ENT-01): 1 (2.5) n, %
